In experiment [1] the target is T1, integrin α4β7 (Homo sapiens, UniProt P13612+P26010).
T1 construct: lymphoma cell strain RPMI-8866 of human B cells, known to express integrin α4β7; endogenous in cells; host or cells: RPMI-8866, human B-cell lymphoma line
T1 sequence (P13612 34-1032): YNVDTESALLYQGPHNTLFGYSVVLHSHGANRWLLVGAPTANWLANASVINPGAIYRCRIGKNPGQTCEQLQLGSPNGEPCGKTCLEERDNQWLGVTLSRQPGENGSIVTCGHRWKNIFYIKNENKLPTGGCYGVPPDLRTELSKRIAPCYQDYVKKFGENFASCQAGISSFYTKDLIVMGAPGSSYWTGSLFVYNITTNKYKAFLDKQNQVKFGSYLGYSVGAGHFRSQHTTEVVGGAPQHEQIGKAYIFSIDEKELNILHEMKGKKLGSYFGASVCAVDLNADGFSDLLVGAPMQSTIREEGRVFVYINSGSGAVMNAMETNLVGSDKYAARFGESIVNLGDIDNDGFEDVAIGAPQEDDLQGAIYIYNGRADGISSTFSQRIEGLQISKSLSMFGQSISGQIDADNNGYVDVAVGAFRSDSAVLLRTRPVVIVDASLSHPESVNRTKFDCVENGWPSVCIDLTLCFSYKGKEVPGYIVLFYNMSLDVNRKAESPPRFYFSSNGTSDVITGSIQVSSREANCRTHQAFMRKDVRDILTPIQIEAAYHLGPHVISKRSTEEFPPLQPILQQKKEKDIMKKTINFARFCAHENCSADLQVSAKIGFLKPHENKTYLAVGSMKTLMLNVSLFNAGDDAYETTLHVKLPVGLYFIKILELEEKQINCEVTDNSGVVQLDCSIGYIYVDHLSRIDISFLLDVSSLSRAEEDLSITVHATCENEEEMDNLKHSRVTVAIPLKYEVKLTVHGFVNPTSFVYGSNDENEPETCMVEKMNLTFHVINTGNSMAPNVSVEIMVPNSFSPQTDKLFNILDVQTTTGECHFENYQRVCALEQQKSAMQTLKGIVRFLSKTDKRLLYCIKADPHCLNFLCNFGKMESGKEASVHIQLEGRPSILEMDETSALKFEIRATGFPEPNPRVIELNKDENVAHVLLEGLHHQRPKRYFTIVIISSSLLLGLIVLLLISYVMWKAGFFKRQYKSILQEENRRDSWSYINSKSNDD
T1 sequence (P26010 20-798): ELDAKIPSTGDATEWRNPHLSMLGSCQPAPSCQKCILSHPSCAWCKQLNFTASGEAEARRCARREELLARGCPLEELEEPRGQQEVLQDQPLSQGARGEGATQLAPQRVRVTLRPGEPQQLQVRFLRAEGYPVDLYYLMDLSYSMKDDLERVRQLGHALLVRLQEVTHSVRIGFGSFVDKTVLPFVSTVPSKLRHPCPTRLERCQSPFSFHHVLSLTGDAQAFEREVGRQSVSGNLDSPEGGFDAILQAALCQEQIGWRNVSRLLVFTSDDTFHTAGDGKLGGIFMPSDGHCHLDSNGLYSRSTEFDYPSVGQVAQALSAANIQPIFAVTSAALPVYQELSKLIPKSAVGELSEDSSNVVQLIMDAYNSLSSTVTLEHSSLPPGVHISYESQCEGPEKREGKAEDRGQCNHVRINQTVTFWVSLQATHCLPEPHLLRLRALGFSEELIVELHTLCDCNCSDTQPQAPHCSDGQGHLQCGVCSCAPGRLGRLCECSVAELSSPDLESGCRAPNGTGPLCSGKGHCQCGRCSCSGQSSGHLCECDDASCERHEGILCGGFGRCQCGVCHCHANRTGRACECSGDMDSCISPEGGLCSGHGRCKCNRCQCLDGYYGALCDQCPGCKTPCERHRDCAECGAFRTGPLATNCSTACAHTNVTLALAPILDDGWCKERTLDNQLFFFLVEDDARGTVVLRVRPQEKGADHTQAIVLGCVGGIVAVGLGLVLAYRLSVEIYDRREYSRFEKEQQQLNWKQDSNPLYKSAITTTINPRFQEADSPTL
As to the kind of experiment: Assessment of VCAM-1/α4β7 binding antagonistic activity (RPMI-8866 cells binding to VCAM-1). In kind it is cell-based. Conditions: RPMI-8866 human B lymphoma cells binding to recombinant human VCAM-1, binding buffer with 4 mM MnCl2; read-out: integrin VCAM/α4 binding antagonistic activity (IC50) α4β7. As to the method: The capacity of a test substance antagonistic to the binding of lymphoma cell strain RPMI-8866 of human B cells, known to express integrin α4β7, to VCAM-1 was determined.
(§1) 100 μl/well of a solution (500 ng/ml) of recombinant human VCAM-1 (R & D systems) solution diluted with buffer A (0.1 M NaHCO3, pH 9.6) was added to a micro titer plate having 96 wells (Nunc Maxisorp). After the incubation at 4° C. overnight, unbound VCAM-1 was removed by washing once with PBS. After completion of the washing, a buffer (buffer B) obtained by diluting Block Ace (Dainippon Pharmaceutical Co., Ltd.) with PBS to 1/4 concentration was added in an amount of 150 μl/well. After the incubation at room temperature for 1 hour, buffer B was removed and the plate was washed with PBS once.
RPMI-8866 cells were washed with DMEM twice and incubated in Dulbecco modified Eagle medium containing 10 μg/ml of Calcein-AM (Wako Pure Chemical Industries, Ltd.) (SIGMA, hereinafter referred to as “DMEM”) in dark place at 37° C. for 30 minutes to label with fluorescence. The cells were again suspended in a binding buffer (20 mM HEPES, DMEM containing 0.1% BSA) containing 4 mM of MnCl2.
(§2) 50 μl of a test substance of various concentrations obtained by the dilution with the binding buffer was added to the plate. Immediately thereafter, 50 μl (final volume: 100 μl/well) of the fluorescent RPMI-8866 cells (4×10^6 cells/ml) were added thereto, and they were incubated in dark place at room temperature for 30 minutes. After the shaking on a plate shaker (IKA MTS-4) at 800 rpm for 30 seconds, the solution was immediately removed to remove the unbound cells. The fluorescence quantity of the bound cells remaining in the wells was determined with a fluorescent plate reader (Wallac 1420 ARVO multi-label counter) (filter excitation wave length: 485 nm, emission wave length: 535 nm). The fluorescent strength thus obtained is proportional to the number of RPMI-8866 cells bound to VCAM-1 and remaining on the plate. The binding rate of each test material in various concentrations was determined while the fluorescent strength of the test material-free well was determined to be 100%.

Experiment [2] concerns the target T2, integrin α4β1 (Homo sapiens, UniProt P05556+P13612).
T2 construct: cell strain Jurkat (ATCC TIB-152) of human T cells, known to express integrin α4β1; endogenous in cells; host or cells: Jurkat (ATCC TIB-152), human T cells
As to the kind of experiment: Assessment of VCAM-1/α4β1 binding antagonist activity (Jurkat cells binding to VCAM-1). In kind it is cell-based. Particulars: Jurkat human T cells binding to recombinant human VCAM-1; read-out: integrin VCAM/α4 binding antagonistic activity (IC50) α4β1. As to the method:
The capacity of a test substance antagonistic to the binding of cell strain Jurkat (ATCC TIB-152) of human T cells, known to express integrin α4β1, to VCAM-1 was determined.
as §1
Jurkat cells were washed with Dulbecco modified Eagle medium (SIGMA, hereinafter referred to as “DMEM”) twice and then incubated in DMEM containing 10 μg/ml of Calcein-AM (Wako Pure Chemical Industries, Ltd.) at 37° C. in dark place for 30 minutes to label with fluorescence. The cells were again suspended in a binding buffer (20 mM HEPES, DMEM containing 0.1% BSA).
as §2, with “Jurkat” for “RPMI-8866”

T2 sequence (P05556 21-798, one chain of several): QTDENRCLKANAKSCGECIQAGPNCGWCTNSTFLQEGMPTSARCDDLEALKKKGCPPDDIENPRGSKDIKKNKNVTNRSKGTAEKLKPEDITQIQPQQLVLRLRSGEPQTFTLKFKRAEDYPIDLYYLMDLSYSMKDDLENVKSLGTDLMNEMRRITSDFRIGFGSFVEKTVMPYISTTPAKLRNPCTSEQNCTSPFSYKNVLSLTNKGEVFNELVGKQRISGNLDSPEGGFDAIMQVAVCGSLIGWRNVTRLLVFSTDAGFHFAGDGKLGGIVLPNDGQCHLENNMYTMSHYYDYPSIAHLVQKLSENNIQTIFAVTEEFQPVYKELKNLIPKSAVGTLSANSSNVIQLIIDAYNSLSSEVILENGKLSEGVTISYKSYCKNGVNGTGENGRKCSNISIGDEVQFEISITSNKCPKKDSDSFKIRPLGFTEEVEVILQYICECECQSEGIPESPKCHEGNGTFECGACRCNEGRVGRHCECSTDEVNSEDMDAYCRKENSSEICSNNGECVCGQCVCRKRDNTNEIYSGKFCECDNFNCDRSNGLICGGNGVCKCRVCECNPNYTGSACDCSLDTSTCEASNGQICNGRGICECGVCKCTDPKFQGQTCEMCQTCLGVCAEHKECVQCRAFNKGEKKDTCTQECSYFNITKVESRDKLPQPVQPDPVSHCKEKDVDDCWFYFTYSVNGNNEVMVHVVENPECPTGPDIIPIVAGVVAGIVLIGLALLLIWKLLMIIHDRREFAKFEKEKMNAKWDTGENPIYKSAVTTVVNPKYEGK

For `O=C(N[C@@H](Cc1ccc(-n2c(=O)c3ccccc3n(Cc3c(F)cccc3F)c2=O)cc1)C(=O)O)c1c(Cl)cccc1Cl` [Example 4], the values for the IC50 in experiment [1] and in experiment [2] were 2.8 nM and 26 nM, respectively.

Turning to `N#CCn1c(=O)n(-c2ccc(C[C@H](NC(=O)c3c(Cl)cccc3Cl)C(=O)O)cc2)c(=O)c2ccccc21` [Example 6], the IC50 was found to be 3.3 nM in experiment [1] and 80 nM in experiment [2].

With `COc1ccc2nnn(-c3ccc(C[C@H](NC(=O)c4c(Cl)cccc4Cl)C(=O)O)cc3)c(=O)c2c1` [Reference Example 84], the IC50 in experiment [1] came to 20 nM; in experiment [2] it was 158 nM.

With `CN(C)c1ccc2c(c1)c(=O)n(-c1ccc(C[C@H](NC(=O)c3c(Cl)cccc3Cl)C(=O)O)cc1)c(=O)n2C` [Reference Example 108], the IC50 in experiment [1] worked out at 3.3 nM; in experiment [2], 57 nM.

Turning to `Cn1c(=O)n(-c2ccc(C[C@H](NC(=O)c3c(Cl)cccc3Cl)C(=O)O)cc2)c(=O)c2cc([N+](C)(C)C)ccc21` [Reference Example 112], the values for the IC50 in experiment [1] and in experiment [2] were 1.1 nM and 37 nM, respectively.

For `O=C(N[C@@H](Cc1ccc(-n2c(=O)c3ccccc3n(Cc3c(Cl)cccc3Cl)c2=O)cc1)C(=O)O)c1c(Cl)cccc1Cl` [Reference Example 114], the IC50 in experiment [1] came out at 27 nM; in experiment [2], 190 nM.

Turning to `Cc1cccc(Cl)c1C(=O)N[C@@H](Cc1ccc(-n2c(=O)c3ccccc3n(C)c2=O)cc1)C(=O)O` [Reference Example 162], the IC50 in experiment [1] is 0.2 nM; in experiment [2], 34 nM.

With `Cn1c(=O)n(-c2ccc(C[C@H](NC(=O)c3c(Cl)cccc3Cl)C(=O)NO)cc2)c(=O)c2ccccc21` [Reference Example 211], the values for the IC50 in experiment [1] and in experiment [2] were 20 nM and 250 nM, respectively.

As to `CCC(C)n1c(=O)n(-c2ccc(C[C@H](NC(=O)c3c(Cl)cccc3Cl)C(=O)O)cc2)c(=O)c2cc([N+](=O)[O-])ccc21` (stereo partly drawn) [compound 58], the IC50 was 31.6 nM in experiment [1] and 1070 nM in experiment [2].

For the molecule `O=C(N[C@@H](Cc1ccc(-n2c(=O)[nH]c3c(Cl)ccc(Cl)c3c2=O)cc1)C(=O)O)c1c(Cl)cccc1Cl` [compound 76], the IC50 turned out to be 13 nM in experiment [1] and 192 nM in experiment [2].

As to `O=C(N[C@@H](Cc1ccc(-n2c(=O)[nH]c3cc(F)ccc3c2=O)cc1)C(=O)O)c1c(Cl)cccc1Cl` [compound 78], the IC50 in experiment [1] was found to be 9.6 nM; in experiment [2], 180 nM.

On to `O=C(N[C@@H](Cc1ccc(-n2c(=O)[nH]c3ncccc3c2=O)cc1)C(=O)O)c1c(Cl)cccc1Cl` [compound 79], for which the figures for the IC50 in experiment [1] and in experiment [2] were 18 nM and 440 nM, respectively.

As to `O=C(N[C@@H](Cc1ccc(-n2nnc3ccc(F)cc3c2=O)cc1)C(=O)O)c1c(Cl)cccc1Cl` [compound 85], the IC50 in experiment [1] turned out to be 25 nM; in experiment [2], 230 nM.

Regarding `Cc1cccc2nnn(-c3ccc(C[C@H](NC(=O)c4c(Cl)cccc4Cl)C(=O)O)cc3)c(=O)c12` [compound 89], the IC50 in experiment [1] worked out at 2.7 nM; in experiment [2], 41 nM.

`CCOc1nc2ccc(F)cc2c(=O)n1-c1ccc(C[C@H](NC(=O)c2c(Cl)cccc2Cl)C(=O)O)cc1` [compound 92]: the IC50 in experiment [1] was 5.7 nM; in experiment [2], 1340 nM.

Turning to `CCOc1nc2cccc(C)c2c(=O)n1-c1ccc(C[C@H](NC(=O)c2c(Cl)cccc2Cl)C(=O)O)cc1` [compound 94], the IC50 came out at 6 nM in experiment [1] and 1150 nM in experiment [2].

For `COc1ccc2c(c1)N(C)C(=O)N(c1ccc(C[C@H](NC(=O)c3c(Cl)cccc3Cl)C(=O)O)cc1)S2(=O)=O` [compound 99], the IC50 was determined as 2 nM in experiment [1] and 12 nM in experiment [2].

Turning to `CN1C(=O)N(c2ccc(C[C@H](NC(=O)c3c(Cl)cccc3Cl)C(=O)O)cc2)S(=O)(=O)c2ccc(C(F)(F)F)cc21` [compound 100], the IC50 in experiment [1] was found to be 2.4 nM; in experiment [2], 11 nM.

For `COCC(=O)Nc1ccc2c(c1)c(=O)n(-c1ccc(C[C@H](NC(=O)c3c(Cl)cccc3Cl)C(=O)O)cc1)c(=O)n2C` [compound 105], the IC50 in experiment [1] was 0.8 nM; in experiment [2], 14 nM.

With `Cn1c(=O)n(-c2ccc(C[C@H](NC(=O)c3c(Cl)cccc3Cl)C(=O)O)cc2)c(=O)c2cc(NC(=O)C(C)(C)C)ccc21` [compound 106], the IC50 in experiment [1] was found to be 2.8 nM; in experiment [2], 44 nM.

For `CCN(C)c1ccc2c(c1)c(=O)n(-c1ccc(C[C@H](NC(=O)c3c(Cl)cccc3Cl)C(=O)O)cc1)c(=O)n2C` [compound 109], the IC50 in experiment [1] worked out at 4.3 nM; in experiment [2], 56 nM.

The record behind these values is patent US7605165B2, “Phenylalanine derivatives” (Ajinomoto Co., Inc., priority 2002, dated 2009).
